Results on four molecules are retold here after US9839618B2, “Compositions and methods relating to proliferative diseases” (The Penn State Research Foundation, priority 2010, dated 2017).

In general, IC50 refers to the point on the concentration scale where inhibition reaches its midpoint.

Where two headings read alike, the source gives them in different places.

The assay concerns UACC 903 metastatic melanoma cells. The assay can be described thus: MTS assay viability IC50, UACC 903. In kind it is cell-based, human. Particulars: for IC50: Homo sapiens, UACC-903; for Selectivity ratio, fibroblasts versus UACC903: activity against fibroblasts FF2441 compared to melanoma cells. The method, then:
The efficacy of leelamine to kill other cancer types is measured and the IC50 for cell lines derived from carcinomas of breast, lung, prostate, connective tissue, pancreas and colon determined. The MTS assay as described in Sharma, A. et al., Clin Cancer Res, 2009, 15:1674-85; and Madhunapantula, S. V. et al., Mol Cancer Ther, 2008, 7:1297-308 is used to establish the IC50 at 24, 48 and 72 hours of leelamine treatment for normal human epidermal melanocytes (FOM103), normal skin fibroblast cells (FF2441), normal skin keratinocytes (HFK) and compared to melanocytic lesion cells from the radial-, vertical- and metastatic melanoma stages. 5×10^3 cells per well in 100 μL of media are plated and grown in a 96-well plate for 48 to 72 hours and treated with either DMSO vehicle control or 0.62 to 40 μmol/L of leelamine for 24, 48 or 72 hours. IC50 values for each compound in μmol/L for respective cell lines are measured from three independent experiments using GraphPad Prism version 4.01 (GraphPad Software, La Jolla, Calif.). Leelamine is found to be not toxic to normal cells and effective to kill melanoma cells as well as non-melanoma cancer cells as shown in Table 1 in FIG. 20. Leelamine is 3- to 4-fold more specific at killing metastatic melanoma than normal cells, supporting cancer therapeutic utility at concentrations<2 μmol/L.
5×10^3 cells per well in 100 μL of media are plated and grown in a 96-well plate for 48 to 72 hours and treated with either DMSO vehicle control or 0.62 to 40 μmol/L of leelamine for 24, 48 or 72 hours. IC50 values for each compound in μmol/L for respective cell lines are measured from three independent experiments using GraphPad Prism version 4.01 (GraphPad Software, La Jolla, Calif.).
The IC50 and effect of liposomal preparations of leelamine on viability of normal human melanocytes, fibroblasts and melanoma cells UACC 903 and 1205 Lu are measured using the MTS assay (Promega, Madison, Wis.). Empty liposomes or liposomes containing abietic acid are used as controls. 5×10^3 cells per well in 100 μL of media are plated and grown in a 96-well plate for 48 or 72 hours for melanoma and normal cell lines, respectively. The cells are then treated with 0.62 to 40 μmol/L of liposome alone, a liposomal preparation of abietic acid, or with Nanolipolee-007 for 24 hours. IC50 values for each liposome in μmol/L for respective cell lines are measured from three independent experiments using GraphPad Prism version 4.01 (GraphPad Software, La Jolla, Calif.). Nanolipolee-007 retains the growth inhibitory activity of leelamine in killing melanoma cells in culture and specifically kills melanoma cells compared to normal cells, FIG. 24.
Dehydroabietylamine, its N-substituted derivatives and the corresponding dihydroabietylamine and its N-substituted derivatives are tested for their capability to inhibit cell growth of cancer cell lines, including melanoma (UACC 903, 1205Lu), breast (MCF-7), fibrosarcoma (HT-1080), colon (Caco-2), and prostate (PC-3) cancer cell lines. Viability and IC50 of normal human fibroblasts and cell lines from melanoma and other malignancies following treatment with all the agents are measured using the MTS assay (Promega, Madison, Wis.). Human fibroblast FF2441 cells, metastatic melanoma cell lines 1205 Lu and UACC 903 as well as cancer cell lines representing sarcoma (HT-1080), prostate (PC-3, LNCaP), breast (MCF-7) and lung (A-549) are maintained in DMEM (Invitrogen, Carlsbad, Calif.) supplemented with 10% FBS (Hyclone, Logan, Utah) in a 5% CO2 atmosphere, humidified 37° C. incubator. 5×10^3 cells per well in 100 μL of media are plated and grown in a 96-well plate for 48 to 72 h and treated with either DMSO vehicle control or 0.62 to 40 μmol/L for 24, 48 or 72 h. IC50 values for each compound in […] for respective cell lines are measured from three independent experiments using GraphPad Prism version 4.01 (GraphPad Software, La Jolla, Calif.). […]
(Tetrazolium dyes change colour on reduction, which living cells bring about.)

[1] abbreviates: Table 4, read-out: IC50 Metastatic Melanoma Cell line UACC903.
[2] abbreviates: Table 5, read-out: IC50 Melanoma (UACC903).
Where [3] appears, read: Table 6, read-out: IC50 Metastatic melanoma UACC 903.
[4] abbreviates: Table 7, read-out: IC50 (UACC903).

Consider `CC(C)c1ccc2c(c1)CCC1[C@](C)(CNC(=O)C(F)(F)F)CCC[C@]21C` (stereo partly drawn) [Compound 5a, N-{[(1R,4aS)-1,4a-dimethyl-7-(propan-2-yl)-1,2,3,4,4a,9,10,10a-octahydrophenanthren-1-yl]methyl}-2,2,2-trifluoroacetamide], for which the “Selectivity ratio, fibroblasts versus UACC903” value (“Selectivity ratio” below) is listed as roughly 4. Further, under setting [1], the half-maximal inhibitory concentration (IC50) amounted to 1280 ± 50 nM. The IC50 under setting [2] came to 1280 ± 50 nM. The IC50 under setting [3] came to 1280 ± 50 nM. Moreover, the IC50 under setting [4] stood at 1280 nM.

With `CC(C)C1=CC2=CCC3[C@](C)(CN)CCC[C@]3(C)C2CC1` (stereo partly drawn) [Compound 4a, {[(1R,4aR)-1,4a-dimethyl-7-(propan-2-yl)-1,2,3,4,4a,4b,5,6,10,10a-decahydrophenanthren-1-yl]methyl}amine], the “Selectivity ratio” value is roughly 4. For the setting “Example 8, read-out: IC50 UACC 903”, the IC50 was 2130 nM. The concentration for half-maximal inhibition (IC50) under setting [1] amounted to 2130 ± 190 nM. The IC50 under setting [2] was 2360 ± 250 nM. For the same molecule, the IC50 under setting [3] was 2130 ± 190 nM. Besides, the half-maximal inhibitory concentration (IC50) under setting [4] amounted to 2130 nM.

Regarding `CC(C)c1ccc2c(c1)CCC1[C@](C)(CN)CCC[C@]21C` (stereo partly drawn) [Leelamine, [(1R,4aS)-1,4a-dimethyl-7-(propan-2-yl)-1,2,3,4,4a,9,10,10a-octahydrophenanthren-1-yl]methanamine], the “Selectivity ratio” value is given as greater than 6. Also, under setting [2], the IC50 was 1350 ± 500 nM. Moreover, the IC50 under setting [3] worked out at 1350 ± 50 nM. The IC50 under setting [4] came to 1350 nM.

In the case of `CC(C)C1=CC2=CCC3[C@](C)(CCC[C@@]3(C)C(=O)O)C2CC1` (stereo partly drawn) [Abietic acid, (1R,4aR)-1,4a-dimethyl-7-(propan-2-yl)-1,2,3,4,4a,4b,5,6,10,10a-decahydrophenanthrene-1-carboxylic acid, reference compound], the half-maximal inhibitory concentration (IC50) is, setting by setting: under setting [1], greater than 100000 nM; under setting [2], greater than 100000 nM; under setting [3], greater than 100000 nM; under setting [4], greater than 100000 nM.
